Source: PMC2944038 (Biochemical pharmacology, 2010)

How the values were obtained:
HEK cells = details: for cytotoxicity in HEK cells (in words): cytotoxic if cell viability 80% or less, 10 min exposure
[1] = molecular target: T1, human apical sodium-dependent bile acid transporter (ASBT; SLC10A2) (Homo sapiens, UniProt Q12908); experiment: ASBT inhibition: taurocholate uptake into ASBT-MDCK cells; type: cell-based; details: for ASBT inhibitor: with consideration of cytotoxicity
T1 sequence (Q12908 1-348): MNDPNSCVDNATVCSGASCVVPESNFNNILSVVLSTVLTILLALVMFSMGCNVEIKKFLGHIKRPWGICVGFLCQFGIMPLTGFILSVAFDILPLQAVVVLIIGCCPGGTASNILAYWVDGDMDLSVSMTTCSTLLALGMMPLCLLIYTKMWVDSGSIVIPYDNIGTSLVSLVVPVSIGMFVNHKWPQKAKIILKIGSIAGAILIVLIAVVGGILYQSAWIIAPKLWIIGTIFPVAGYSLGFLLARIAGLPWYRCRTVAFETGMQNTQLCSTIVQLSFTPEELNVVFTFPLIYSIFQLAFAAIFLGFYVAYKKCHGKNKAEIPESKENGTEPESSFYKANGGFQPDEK

[2] = molecular target: T2, human organic cation/carnitine transporter (OCTN2; SLC22A5) (Homo sapiens, UniProt O76082); experiment: OCTN2 inhibition: L-carnitine uptake into OCTN2-MDCK cells; type: cell-based; details: for OCTN2 inhibitor: with consideration of cytotoxicity
T2 sequence (O76082 1-557): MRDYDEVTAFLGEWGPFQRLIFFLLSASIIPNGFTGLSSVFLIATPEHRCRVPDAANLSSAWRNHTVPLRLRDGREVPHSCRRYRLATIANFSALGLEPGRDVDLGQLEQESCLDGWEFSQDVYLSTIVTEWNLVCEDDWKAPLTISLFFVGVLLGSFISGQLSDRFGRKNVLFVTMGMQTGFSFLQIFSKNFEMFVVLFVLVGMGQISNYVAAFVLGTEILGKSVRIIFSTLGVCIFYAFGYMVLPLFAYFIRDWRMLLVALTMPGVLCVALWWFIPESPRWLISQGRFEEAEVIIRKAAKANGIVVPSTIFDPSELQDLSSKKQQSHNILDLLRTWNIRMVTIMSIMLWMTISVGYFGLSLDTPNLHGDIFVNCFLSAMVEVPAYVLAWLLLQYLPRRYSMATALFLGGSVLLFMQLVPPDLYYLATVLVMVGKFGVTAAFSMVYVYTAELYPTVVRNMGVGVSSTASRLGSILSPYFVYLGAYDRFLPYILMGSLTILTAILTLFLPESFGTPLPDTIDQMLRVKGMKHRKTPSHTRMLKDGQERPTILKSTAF

[3] = WST-1 cytotoxicity study in MDCK cells; type: cell-based; details: dog, MDCK cells (ASBT-MDCK or OCTN2-MDCK, not specified)
[4] = molecular target: T1, human apical sodium-dependent bile acid transporter (ASBT; SLC10A2); details: known inhibitors selected for this study; cited from earlier work
[5] = molecular target: T3, excitatory amino acid transporter 4 (EAAT4; SLC1A6) (Homo sapiens, UniProt P48664); experiment: EAAT4 inhibition: glutamate uptake into EAAT4-HEK cells; type: cell-based; details: for EAAT4 inhibitor: with consideration of cytotoxicity
T3 sequence (P48664 1-564): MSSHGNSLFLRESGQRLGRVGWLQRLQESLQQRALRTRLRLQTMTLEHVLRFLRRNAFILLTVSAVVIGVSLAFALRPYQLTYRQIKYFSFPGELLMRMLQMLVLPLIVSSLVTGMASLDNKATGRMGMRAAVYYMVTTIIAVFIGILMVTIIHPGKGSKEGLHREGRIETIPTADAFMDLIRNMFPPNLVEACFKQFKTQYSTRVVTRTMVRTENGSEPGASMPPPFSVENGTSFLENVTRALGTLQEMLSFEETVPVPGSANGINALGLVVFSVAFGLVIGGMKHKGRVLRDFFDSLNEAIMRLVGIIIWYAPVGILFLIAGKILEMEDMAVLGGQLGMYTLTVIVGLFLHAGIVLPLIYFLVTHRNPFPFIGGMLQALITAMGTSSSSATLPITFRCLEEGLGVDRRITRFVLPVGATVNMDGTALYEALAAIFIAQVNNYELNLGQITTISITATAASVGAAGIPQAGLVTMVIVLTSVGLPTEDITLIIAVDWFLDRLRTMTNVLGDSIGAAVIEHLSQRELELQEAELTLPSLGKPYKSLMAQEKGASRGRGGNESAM

MDCK cells = experiment: WST-1 cytotoxicity study in MDCK cells; type: cell-based; details: for cytotoxicity in MDCK cells (in words): cytotoxic if cell viability 80% or less, 10 min exposure
[6] = EAAT4-HEK, drug concentration not given

For `CC(C)n1c(/C=C/C(O)CC(O)CC(=O)O)c(-c2ccc(F)cc2)c2ccccc21` (stereo not shown) [Fluvastatin, fluvastatin], the “cytotoxicity in HEK cells (in words)” value (HEK cells) was “without cytotoxicity”, the taurocholate uptake [1] was 4.51% and the ASBT inhibition ([1]; ASBT-MDCK, drug concentration not given) was “over 90%”. The “OCTN2 inhibition (reduction of L-carnitine uptake)” value ([2]; OCTN2-MDCK, drug concentration not given) was about 35%, the viability at 10 min [3] was 107% and the “ASBT inhibition, previously reported” value [4] was “competitively inhibits ASBT”. For the same molecule, the EAAT4 inhibition [5, 6] was about 35%, the glutamate uptake [5, 6] was “about 60%” and the “EAAT4 inhibitor” value [5] was “inhibited all three transporters”.

With `CN1CCN(C2=Nc3cc(Cl)ccc3Nc3ccccc32)CC1` [Clozapine, clozapine] the “cytotoxicity in HEK cells (in words)” value (HEK cells) was “reduced cell viability in HEK cells”, the “cytotoxicity in MDCK cells (in words)” value (MDCK cells) was “not cytotoxic in MDCK cells” and the “EAAT4 inhibitor” value [5] was “non-inhibitors of EAAT4”.

With `COc1ccc2c(c1)c(CC(=O)O)c(C)n2C(=O)c1ccc(Cl)cc1` [Indomethacin, indomethacin] the “ASBT inhibitor” value [1] was “only inhibited ASBT” and the “OCTN2 inhibitor” value [2] was “only inhibited ASBT”.

For `CN(C)CCC(c1ccc(Cl)cc1)c1ccccn1` (stereo not shown) [Chlorpheniramine, chlorpheniramine], the “ASBT inhibitor” value [1] was “only inhibited OCTN2”.

In the case of `COC(=O)C1=C(C)NC(C)=C(C(=O)OCCN(C)Cc2ccccc2)C1c1cccc([N+](=O)[O-])c1` (stereo not shown) [Nicardipine, nicardipine], the “ASBT inhibitor” value [1] is reported as “only inhibited ASBT” and the “cytotoxicity in MDCK cells (in words)” value (MDCK cells) is reported as “cytotoxic to MDCK cells”.

For `CSc1ccc2c(c1)N(CCC1CCCCN1C)c1ccccc1S2` (stereo not shown) [Thioridazine, thioridazine], the “viable cells / cell viability” value (HEK cells; HEK cells, 10 min, drug concentration not given) was 73.5%, the “cytotoxicity in HEK cells (in words)” value (HEK cells) was “reduced cell viability in HEK cells” and the “cytotoxicity in MDCK cells (in words)” value (MDCK cells) was “not cytotoxic in MDCK cells”. For the same molecule, the “ASBT inhibition, previously reported” value [4] was “known to inhibit both transporters” and the “EAAT4 inhibitor” value [5] was “non-inhibitors of EAAT4”.

In the case of `CN(C)CCCN1c2ccccc2Sc2ccc(Cl)cc21` [chlorpromazine], the “cytotoxicity in MDCK cells (in words)” value (MDCK cells) is reported as “not cytotoxic in MDCK cells”.

For `CCC(C)(C)C(=O)O[C@H]1C[C@@H](C)C=C2C=C[C@H](C)[C@H](CC[C@@H]3C[C@@H](O)CC(=O)O3)[C@H]21` [Simvastatin, simvastatin], the “EAAT4 inhibitor” value [5] was “did not appreciably inhibit EAAT4”.

In the case of `CC[C@H](C)C(=O)O[C@H]1C[C@@H](C)C=C2C=C[C@H](C)[C@H](CC[C@@H]3C[C@@H](O)CC(=O)O3)[C@H]21` [Lovastatin, lovastatin], the “EAAT4 inhibitor” value [5] is reported as “did not appreciably inhibit EAAT4”.

With `CCOC(=O)C1=C(COCCN)NC(C)=C(C(=O)OC)C1c1ccccc1Cl` (stereo not shown) [Amlodipine, amlodipine] the cells non-viable (MDCK cells; MDCK cells) was 60%, the “cytotoxicity in MDCK cells (in words)” value (MDCK cells) was “cytotoxic to MDCK cells” and the viability at 10 min, 100 μM [3] was 101 ± 6%. The viability at 10 min, 500 μM [3] was 39.3%.

For `Clc1ccc(C(Cn2ccnc2)OCc2ccsc2Cl)c(Cl)c1` (stereo not shown) [Tioconazole, tioconazole], the “cytotoxicity in HEK cells (in words)” value (HEK cells) was “reduced cell viability in HEK cells”, the “cytotoxicity in MDCK cells (in words)” value (MDCK cells) was “not in MDCK cells” and the “EAAT4 inhibitor” value [5] was “non-inhibitors of EAAT4”.

With `COC(=O)C1=C(C)NC(C)=C(C(=O)OCC(C)C)C1c1ccccc1[N+](=O)[O-]` (stereo not shown) [Nisoldipine, nisoldipine] the “ASBT inhibitor” value [1] was “only inhibited ASBT”, the “OCTN2 inhibitor” value [2] was “not classed as OCTN2 inhibitors” and the “cytotoxicity in MDCK cells (in words)” value (MDCK cells) was “cytotoxic to MDCK cells”. It also gave a viability at 10 min, 100 μM [3] of 56%.

In the case of `COc1ccc([C@@H]2Sc3ccccc3N(CCN(C)C)C(=O)[C@@H]2OC(C)=O)cc1` [Diltiazem, diltiazem], the “ASBT inhibition, previously reported” value [4] is given as “known to inhibit both transporters”.
